# According to patent publication US12616750B2, “Combination therapy utilizing DNA alkylating agents and ATR inhibitors” (Merck Patent GmbH, priority 2018, dated 2026):
# Several values for one entry are separate records, joined by “and”; a condition that tells them apart may be missing. Identical values can stand only once. Like-named read-outs stand apart in the source and are kept apart here. Where a SMILES comes first, the peptide text is derived from it. [ ]: non-standard residue; d: D form. The star is where a group is joined. Dolaproine = CO[C@@H]([C@@H]1CCCN1)[C@@H](C)C(=O)O; Dil = CC[C@H](C)[C@H](NC)[C@@H](CC(=O)O)OC; X1 = C[C@@H](N*)[C@@H](O)c1ccccc1; NMeV = CN[C@H](C(=O)O)C(C)C
# Legend:
# HCC-1954 cells [1] = test: Dose-matrix combination assay (synergy score, Loewe model); format: cell-based
# Protocol: (§1) Dose-matrix combination assays were performed as described above, but performed in opague 384-well plates (2k viable cells/well). Compounds were added using Tecan D300e liquid. Protein solutions were supplemented with 0.3% Tween-20 (final) and diluted to 1 μM. All wells were normalized to the maximum amount of DMSO (maximum 0.4%) or Tween-20 added. […] Luminescence values were normalized to luminescence of non-treated cells and dose-response was fitted using Smart Fit. Synergy scores were calculated using LOEWE synergy model.
# (§2) The screening of synergistic drug combinations can be accomplished by performing a dose-matrix assay. Therefore, two drugs are serial diluted and mixed at every dose level, yielding a dose-matrix. The drug combination can be additive if the effects of the combination are identical to the added effects of the single agents. However, the effects of the combination might also be stronger than the activity of the single agents. This scenario is termed synergy, whereas weaker combination effects compared to the single agents are termed antagonism. A dose-matrix assay is depicted schematically in FIG. 2 which illustrates the outcomes of a dose-matrix assay: additivity, antagonism and synergy.
# (§3) The screening was conducted by serial diluting the duocarmycin derivative DUBA (10) and the DDR inhibitors. […] DUBA was combined in a dose-matrix assay with hycanthone. The cell viability was measured after 6 d of treatment using the CellTiter-Glo assay kit. The signals of the cell viability assay were normalized to untreated cells and fitted. […] By subtracting the modeled data from the fitted data, an excess matrix was generated. The excess matrix can be considered as a visualization of the differences between model and actual data which also highlights spots of either high synergy or antagonism. The quantification of the combination effects, however, was performed by calculating synergy scores. […] Besides synergy score, the potency of the drugs in monotherapy was obtained from these experiments. […] The potency was obtained from this dose-response curve.
# (§4) The scattering of S was determined in a sham control experiment to define a cutoff for classifying a combination as truly synergistic or antagonistic. Thus seven different compounds were combined with itself on four different cell lines and the three-σ confidence interval was calculated around the mean of the measurement. […] For the sake of convenience, the cutoff was set to a value of ±1.
# (§5) Synergy scores (S) were obtained from the combination experiments that indicated additivity […] if model and actual response were equal. […] The magnitude of the score determined the extent of the combination effects.
# MDA-MB-453 cells = test: as above; format: cell-based
# Protocol: (§6) Dose-matrix combination assays were performed as described above, but performed in opague 384-well plates (2k viable cells/well). Compounds were added using Tecan D300e liquid. Protein solutions were supplemented with 0.3% Tween-20 (final) and diluted to 1 μM. All wells were normalized to the maximum amount of DMSO (maximum 0.4%) or Tween-20 added. Read out of luminescence was performed on Envision 2104 Multilabel Reader (Perkin Elmer) and data were evaluated using Genedata Screener® version 14.0.6-Standard (Genedata AG). Luminescence values were normalized to luminescence of non-treated cells and dose-response was fitted using Smart Fit. Synergy scores were calculated using LOEWE synergy model.
# as §2
# NCI-N87 cells = test: as above; format: cell-based
# Protocol: as §6, §2
# HCC-1954 cells [2] = test: MNED curve-shift assay; format: cell-based; details: for MNED (maximum non-efficacious dose): HCC-1954
# From the text: Therefore a curve-shift assay system was established. In a first step, a dose-response curve (DRC) is obtained by treating a certain cell line with an inhibitor. The maximum non-efficacious dose (MNED) can be derived from this DRC. MNED is the highest dose, that can be added to a certain cell line without affecting the viability. The activity of the ADC is confirmed in a separate experiment. Finally, a combination experiment can be conducted. Therefore, the ADC and ADC plus inhibitor at MNED are added to the cells. The inhibitor is tested in parallel at MNED as a control. Due to the application of inhibitor at MNED, no reduction in cell viability caused by the inhibitor is expected. Three outcomes are possible: 1) The combination of ADC plus inhibitor is equipotent as the ADC only. […] Such a result would be interpreted as depotentiation. […] In this case, the potency of the ADC is potentiated.
# Potentiation effects are expressed as dose-reduction indices (DRI), which can be calculated by dividing the IC50-value of ADC by the IC50-value of ADC plus inhibitor according to eq. 1
# Curve-shift assays were conducted as follows: The cell number and viability was determined using ViCell™-XR (Beckman Coulter) and seeded in opague 96-well plate (10k viable cells/well). After seeding, the plate was incubated (37° C., 5% C02) in a humid chamber overnight. Compounds were diluted in the appropriate medium, added to the cells and the plate was incubated (37° C., 5% CO2, 6 d) in a humid chamber. After 30 min equilibration at room temperature, CellTiter-Glo reagent (Promega) was added. After the plate was shaken (3 min, 550 rpm, rt) it was incubated (10 min, rt) and luminescence was read on a synergy 4 plate reader (BioTek). Evaluation was performed using GraphPad Prism version 6.05. Therefor luminescence values were normalized to luminescence values of non-treated cells and dose-response was fitted with 4-point logistic fit.
# The determination of dose-reduction indices (DRI) in a maximum non-efficacious dose (MNED) curve-shift assay is a 3-step process as depicted exemplarily in FIG. 13. The cytotoxicity of the ADC is confirmed in a cell viability assay in an initial step. […] In the second step. the MNED of the ATRi was determined. […] In order to obtain a full […] for the combination, the starting concentration of the ADC was lowered compared to the experiment in step 1.
# [3] = Xenograft experiment, tolerability (body weight); parameters: species or system H2d Rag2 mice; details: mouse, in vivo
# Protocol: The tolerability of the anti-cancer treatment was assessed considering the overall condition of the animal as well as body-weight changes of the mice (FIG. 22).
# NCI-N87 xenografts = test: Xenograft experiment, therapeutic efficacy; details: single agent: αHER2-6 1.0 mg/kg i.v. single dose; ATRi 50 mg/kg per oral once daily 14 d
# Protocol: Female H2d Rag2 mice, 6-8 weeks old, were obtained from Taconic Biosciences, LLC. A xenograft was established by harvesting NCI-N87 cells from cell culture, mixing the cells 1:1 with Matrigel and injecting 2.5×10^6 cells subcutaneously into the flank of the mice. The tumor volume was assessed twice weekly by length measurements in two dimensions using calipers. The volume was calculated following eq. 3 where the length L is the longest tumor length and W is the shortest tumor length.
# After an initial tumor growth phase, mice were randomized and assigned to treatment groups comprising 10 animals. The initial tumor volume amounted to approximately 100 mm^3 when treatment started. Vehicle treated mice obtained a solution of 0.5% Methocel, 0.25% Tween-20 in water. […] Mice were weighted twice weekly to assess the body-weight during the treatment period. The criteria to terminate the study for single animals were skin ulcerations, tumor length exceeding 15 mm or tumor exceeding 10% of the body weight. In addition, body weight loss was a criterium for termination if body weight loss exceeded 20% accompanied with a haggard appearance, body weight loss exceeded 20% on three successive days or if body weight loss exceeded 25% of the adjusted body weight.
# MDA-MB-468 cells = test: Dose-matrix combination assay (synergy score, Loewe model); format: cell-based; details: combination with DUBA; MDA-MB-468, 6 d; S ± SD; cutoff ±1
# Protocol: as §1, §2, §3, §4, §5
# HCC-1954 cells [4] = test: Cytotoxicity (cell viability, CellTiter-Glo, 6 d); format: cell-based; details: Homo sapiens, HCC1954, HCC-1954
# Protocol: as §1
# After 6 d of treatment, CellTiter-Glo luminescent assay was performed and the luminescence was read on Envision Reader. The results were analyzed using GeneData Screener as described before.
# [5] = evaluated in vivo; cited from earlier work
# [6] = combination with ADC αHER2-2, HCC-1954
# [7] = combination with DUBA, HCC-1954, 6 d, S ± SD, cutoff ±1
# [8] = combination with DUBA, cell line not given (screen on HCC-1954 or MDA-MB-468)
# [9] = ATRi alone, mean ± SD, read-out: Cytotoxicity IC50
# [10] = combination with AZD6738, HCC-1954, 6 d
compound,measurement,setting,value
C[C@@H]1COCCN1c1cc(-c2ccnn2C)c2ccnc(-c3ccn[nH]3)c2n1 [ATRi 1],Synergy score S,HCC-1954 cells [1],12.5±1.7 and 12.0±0.6
same,Synergy score S,MDA-MB-453 cells,13.3±0.3 and 11.4 ± 1.4
same,Synergy score S,NCI-N87 cells,7.1±0.8 and 6.1±0.4
same,MNED (maximum non-efficacious dose),HCC-1954 cells [2],40 nM
same,effect on cell viability at MNED,"HCC-1954 cells [2]; HCC-1954, at 40 nM, inhibitor alone (quality control)",did not reduce cell viability
same,tolerability (conclusion),[3],well tolerated
same,tumor response (tumor volume),NCI-N87 xenografts,transient tumor stasis was induced until day 8
C[C@@H]1COCCN1c1cc(C2(S(C)(=O)=O)CC2)nc(-c2cccc3[nH]ccc23)n1 [AZ20],Synergy score S,HCC-1954 cells [1]; [6],5.8±0.4
same,Synergy score S,HCC-1954 cells [1]; [7],5.1±0.5
C=CCn1c(=O)c2cnc(Nc3ccc(N4CCN(C)CC4)cc3)nc2n1-c1cccc(C(C)(C)O)n1 [AZD1775],Synergy score S,HCC-1954 cells [1]; [7],0.8±0.1
same,Synergy score S,MDA-MB-468 cells,0.1±0.4
NC(=O)Nc1cc(-c2cccc(F)c2)sc1C(=O)N[C@H]1CCCNC1 [AZD7762],Synergy score S,HCC-1954 cells [1]; [7],3.6±0.4
same,Synergy score S,MDA-MB-468 cells,2.6+0.2
S=C(NCc1ccc2c(c1)OCO2)N1CCN(c2ncnc3c2oc2ccccc23)CC1 [Amuvatinib],Synergy score S,HCC-1954 cells [1]; [8],did not yield a synergy score exceeding the cutoff
Cc1nc(S(C)(=O)=O)ccc1-c1cc(N2CCOC[C@H]2C)nc2c(-c3ccn[nH]3)nccc12 [BAY73],IC50,HCC-1954 cells [4]; [9],120 ± 30 nM
same,Synergy score S,HCC-1954 cells [1]; [6],14.4±1.1
same,Synergy score S,HCC-1954 cells [1]; [7],12.4±0.8
same,MNED (maximum non-efficacious dose),HCC-1954 cells [2],14 nM
C[C@@H]1COCCN1c1cc(C2(S(C)(=O)=O)CC2)c2ccnc(-c3ccn[nH]3)c2n1 [BAY286],IC50,HCC-1954 cells [4]; [9],80 ± 20 nM
same,Synergy score S,HCC-1954 cells [1]; [6],10.4±0.2
same,Synergy score S,HCC-1954 cells [1]; [7],9.5±0.8
Cc1c(N)nc([C@H](CC(N)=O)NC[C@H](N)C(N)=O)nc1C(=O)N[C@H](C(=O)N[C@H](C)[C@@H](O)[C@H](C)C(=O)NC(C(=O)NCCc1nc(-c2nc(C(=O)NCCCNCCCCN)cs2)cs1)[C@@H](C)O)[C@@H](O[C@@H]1O[C@@H](CO)[C@@H](O)[C@H](O)[C@@H]1O[C@H]1O[C@H](CO)[C@@H](O)[C@H](OC(N)=O)[C@@H]1O)c1cnc[nH]1 (stereo partly shown) [Bleomycin A5],Synergy score S,HCC-1954 cells [1]; [7],1.6±1.0
same,Synergy score S,MDA-MB-468 cells,0.4+1.0
COc1c(O)c2c(c3cc(C(=O)N4CCc5c4c(O)c(OC)c4[nH]c(C(=O)N6CC7CC78C6=CC(=O)c6[nH]cc(C)c68)cc54)[nH]c13)CCN2C(N)=O (stereo not shown) [CC-1065],antitumor activity,[5],moderate antitumor activity
same,toxicity,[5],hepatic toxicity limited its effectiveness
COCC(=O)NC/C=C/c1ccc2ncnc(Nc3ccc(Oc4ccc(C)nc4)c(C)c3)c2c1 [CP724714],Synergy score S,HCC-1954 cells [1]; [7],additive effects
same,Synergy score S,MDA-MB-468 cells,additive effects
N#C/C(C(=O)c1ccc(Cl)cc1Cl)=C1/NC(=O)c2ccc(Cl)cc2N1 [Ciliobrevin D],Synergy score S,HCC-1954 cells [1]; [7],1.2+0.6
same,Synergy score S,MDA-MB-468 cells,0.2±0.5
COc1cc2cc(c1Cl)N(C)C(=O)C[C@H](OC(=O)[C@H](C)N(C)C(=O)CCS)[C@]1(C)O[C@H]1[C@H](C)[C@@H]1C[C@@](O)(NC(=O)O1)[C@H](OC)/C=C/C=C(\C)C2 [DM1],Synergy score S,HCC-1954 cells [1],2.8 ± 0.5
Nc1ccn([C@@H]2O[C@H](CO)[C@@H](O)C2(F)F)c(=O)n1 [Gemcitabine],Synergy score S,HCC-1954 cells [1]; [10],6.9±0.3
same,Synergy score S,"MDA-MB-453 cells; combination with AZD6738, MDA-MB-453",1.6±1.2
same,Synergy score S,"NCI-N87 cells; combination with AZD6738, NCI-N87",1.1±0.5
CCN(CC)CCNc1ccc(CO)c2sc3ccccc3c(=O)c12 [Hycanthone],Synergy score S,HCC-1954 cells [1]; [8],0.1
O=c1cc(-c2cccc3c2Sc2ccccc2S3)oc(N2CCOCC2)c1 [KU-55933],Synergy score S,HCC-1954 cells [1]; [7],2.1±1.2
Cc1cnc(NC(=O)Nc2cc(Br)c(C)cc2OC[C@@H]2CNCCO2)cn1 [LY2603618],Synergy score S,HCC-1954 cells [1]; [7],4.1+0.3
same,Synergy score S,MDA-MB-468 cells,4.4+1.7
Nc1nc(OCc2cc(Br)cs2)c2[nH]cnc2n1 [Lomeguatrib],Synergy score S,HCC-1954 cells [1]; [7],0.1±0.3
same,Synergy score S,MDA-MB-468 cells,2.8±2.3
CC[C@H](C)[C@@H]([C@@H](CC(=O)N1CCC[C@H]1[C@H](OC)[C@@H](C)C(=O)N[C@H](C)[C@@H](O)c1ccccc1)OC)N(C)C(=O)[C@@H](NC(=O)[C@@H](NC)C(C)C)C(C)C [MMAE] (H-[NMeV]V[Dil][Dolaproine]-X1),Synergy score S,HCC-1954 cells [1]; [10],2.2+0.1
O=c1cc(N2CCOCC2)oc2c(-c3cccc4c3sc3ccccc34)cccc12 [NU7441],Synergy score S,HCC-1954 cells [1]; [8],did not yield a synergy score exceeding the cutoff
O=C(c1cc(Cc2n[nH]c(=O)c3ccccc23)ccc1F)N1CCN(C(=O)C2CC2)CC1 [Olaparib],Synergy score S,HCC-1954 cells [1]; [7],0.6+0.4
same,Synergy score S,MDA-MB-468 cells,1.1+0.1
Nc1nc(NC2CC2)cc(-c2cccc(Cl)c2Cl)n1 [TH588],Synergy score S,HCC-1954 cells [1]; [7],−0.2±0.3
same,Synergy score S,MDA-MB-468 cells,−0.4+0.3
C=CCNC1=C2C[C@@H](C)C[C@H](OC)[C@H](O)[C@@H](C)/C=C(\C)[C@H](OC(N)=O)[C@@H](OC)/C=C\C=C(/C)C(=O)NC(=CC1=O)C2=O [Tanespimycin],Synergy score S,HCC-1954 cells [1],1.4±0.4
COc1cc2cc(C(=O)N3C[C@@H](CCl)c4c3cc(O)c3ccccc43)[nH]c2c(OC)c1OC [compound 24],IC50,"HCC-1954 cells [4]; duocarmycin variant alone, mean ± SD or mean (individual values), read-out: IC50",24 ± 32 nM
same,Synergy score S,HCC-1954 cells [1]; [10],6.1 ± 1.2
same,Synergy score S,"HCC-1954 cells [1]; combination with AZD6738, HCC-1954, 6 d, listed as CBI-TMI (24)",6.1±1.2
